{"source": "patent US20170196842A1", "about": "“METHODS OF TREATMENT USING A 1,2,4-OXADIAZOLE BENZOIC ACID” (PTC Therapeutics, Inc., priority 2014, published 2017)", "key": {"Idua-W402X mice": {"system": "Idua-W402X mice", "experiment": "Tissue GAG levels in the nonsense-mutation Hurler mouse model, Compound 1 given in chow", "type": "in vivo", "description": "Compound 1 was administered to Idua-W402X mice by mixing Compound 1 into solid mouse chow at concentrations of 0.1%. 0.3% or 1.0% (w/w) for 2 weeks, after which time GAG levels in the brain, spleen, heart, liver, lung, and kidney tissues were quantified.\nThe effect of Compound 1 on iduronidase activity as a result of readthrough of the premature stop codon present in the Idua gene (Idua-W392X) was determined in a nonsense-mutation containing mouse model of Hurler syndrome, referred to as the Idua-W392X Hurler mouse. The study initiated when mice were 3-4 weeks old.\nHomozygous Idua-W392X mice were offered food prepared with or without Compound 1 for 14 days. Wild type animals received chow without Compound 1 for 14 days. Assay results were obtained from tissues isolated from wild type (+/+) and homozygous Idua-W392X (−/−) mice after 14 days of treatment. Briefly, Compound 1 was dissolved in water, mixed into pulverized chow, shaped into pellets and dried.\nFollowing the 14-day treatment period, mice were anesthetized using isoflurane and transcardially perfused with 20 mL saline prior to tissue collection. At the time of sacrifice, brain, liver, heart, lung, spleen and kidney were collected and frozen at −80° C. until used for determination of GAG levels.\n(§1) GAG levels were determined using the Blyscan Sulfated GAG Assay (Biocolor Ltd, UK). Briefly, 50 μL of each lysate was added to 500 μL of the Blyscan Dye Reagent and mixed by vortexing. The mixture was incubated at room temperature for 30 minutes, vortexing every 5 minutes. The dye-bound GAGs were isolated from the solution by centrifuging for 10 minutes at 10,000 g at room temperature. A total of 500 μL of the Blyscan Dye Dissociation Reagent was added to the […] from each sample. The samples were vortexed and incubated for 10 minute at room temperature. The entire volume of each sample was then placed into a cuvette and the absorbance was measured at a wavelength of 656 nm. The total amount of sulfated GAGs precipitated from each sample was determined from a standard curve using chondroitin 4-sulfate. The total protein concentration in each lysate was determined using the Bio-Rad protein assay with a standard curve generated using bovine serum albumin."}, "[1]": {"system": "Mouse embryonic fibroblasts (MEFs) isolated from the Idua-W402X mice", "experiment": "GAG levels in cultured mouse embryonic fibroblasts from the nmHurler mouse model (Blyscan Sulfated GAG Assay)", "type": "cell-based", "settings": "24 hours", "description": "nmMPS I is caused by the lack of the lysosomal enzyme IDUA and results in the accumulation of GAGs in tissues. Therefore, GAG levels can be monitored to assess the efficacy of treatment for this disease. In the nmHurler mouse model of nmMPS I, the Idua-W402X Hurler mouse IDUA gene (TGG→TAG) harbors a W392X mutation in exon 9, corresponding to the W402X mutation found in approximately 30 to 50% of nmMPS I patients. Mouse embryonic fibroblasts (MEFs) isolated from the Idua-W402X mice were treated with Compound 1 at concentrations of 0, 1, 2.5, 5, 10, 20, and 40 μg/mL for 24 hours in 0.2% DMSO. After 24 hours, cells were lysed and the levels of GAGs were quantified.\n(§2) The effect of Compound 1 on iduronidase activity as a result of readthrough of the premature stop codon present in the Idua gene was determined in an in vitro GAG accumulation assay. This assay utilized primary fibroblasts isolated from 13 day-old +/+ and −/− Idua-W392X mouse embryos. Mouse embryonic fibroblasts (MEFs) were isolated from 13 day-old wild type and homozygous Idua-W392X mouse embryo littermates. The cells were grown in Dulbecco's Modified Eagle Media (DMEM) containing 10% bovine calf serum (BCS)+1% non-essential amino acids+1% penicillin/streptomycin at 37° C. and 5% CO2. The MEFs were isolated and grown on collagen-coated plates until ˜50% confluent. MEFs from Idua-W392X mice were treated with increasing concentrations of Compound 1 dissolved in DMSO to a final concentration of 0.2%. Cells were incubated with Compound 1 for 24 hours. Controls included untreated wild type and untreated Idua-W392X MEFs. After 24 hours, cells were visually inspected for signs of cytotoxicity and cell stress and then lysed using M-Per Protein Reagent (Pierce) containing protease inhibitors (Complete-mini; Roche) per the manufacturer's instructions. The supernatant was used to determine glycosaminoglycan (GAG) levels, as described below.\nas §1, with “μl” for “μL”, “temperature.” for “temperature. A total of”, “The samples were vortexed and incubated for 10 minute at room temperature.” left out"}, "[2]": {"experiment": "Weight gain and food intake of mice given Compound 1 in chow", "type": "in vivo, C57BL/6J mice", "settings": "1.0% (w/w) in chow", "source_text": "Mice receiving food containing 1.0% (w/w) Compound 1 are 45% less food than mice receiving the control chow. However, a reduction in weight gain would not be expected to elicit a reduction in tissue GAG levels in the pharmacology studies."}, "[3]": {"system": "Mouse embryonic fibroblasts (MEFs)", "experiment": "Cell toxicity/stress (visual inspection) and total protein concentration in MEFs", "type": "cell-based", "settings": "24 hours", "description": "The greatest reduction of GAG levels occurred at 10 μg/mL with decreased reduction of GAG levels at concentrations above 20 μg/mL. […] Cell viability was determined by quantifying the total protein concentration in each lysate.\nas §2, with “After 24 hours, cells were visually inspected for signs of cytotoxicity and cell stress and then lysed using M-Per Protein Reagent (Pierce) containing protease inhibitors (Complete-mini; Roche) per the manufacturer's instructions. The supernatant was used to determine glycosaminoglycan (GAG) levels, as described below.” left out\nThe total protein concentration in each lysate was determined using the Bio-Rad protein assay with a standard curve generated using bovine serum albumin."}, "[4]": {"settings": "Idua-W402X (W392X) mice, 0.1%, 0.3%, 1.0% (w/w) chow, 14 days"}, "[5]": {"settings": "Idua-W402X mice, 0.1% (w/w) in chow, 2 weeks"}, "[6]": {"settings": "Idua-W402X mice, 0.3% (w/w) in chow, 2 weeks"}, "[7]": {"settings": "Idua-W402X mice, 1.0% (w/w) in chow, 2 weeks"}}, "note": "Entries after “also recorded” stand apart in the source; their conditions may differ."}
{"smiles": "O=C(O)c1cccc(-c2noc(-c3ccccc3F)n2)c1", "note": "[Compound 1, 3-[5-(2-fluoro-phenyl)-[1,2,4]oxadiazol-3-yl]-benzoic acid]", "values": [{"measurement": "Nonsense suppression activity as determined by decreased GAG levels in multiple tissues", "setting": "Idua-W402X mice; Idua-W392X mice, chow, 14 days", "value": "concentration-dependent nonsense suppression activity"}, {"measurement": "Compound 1 concentration in chow giving maximal reduction of GAG levels in brain, spleen, heart and lung", "setting": "Idua-W402X mice; [4]", "value": 0.1, "unit": "%"}, {"measurement": "Compound 1 concentration in chow giving maximal reduction of liver GAG levels", "setting": "Idua-W402X mice; [4]", "value": 0.3, "unit": "%"}, {"measurement": "Effect on GAG levels in the kidney", "setting": "Idua-W402X mice; Idua-W402X (W392X) mice, any dose (0.1-1.0% chow)", "value": "No statistically significant effect"}, {"measurement": "Reduction in Excess GAG Levels, Brain", "setting": "Idua-W402X mice; [5]", "value": 70, "unit": "%"}, {"measurement": "Reduction in Excess GAG Levels, Heart", "setting": "Idua-W402X mice; [5]", "value": 36, "unit": "%"}, {"measurement": "Reduction in Excess GAG Levels, Kidney", "setting": "Idua-W402X mice; [5]", "value": 0, "unit": "%"}, {"measurement": "Reduction in Excess GAG Levels, Liver", "setting": "Idua-W402X mice; [5]", "value": 0, "unit": "%"}, {"measurement": "Reduction in Excess GAG Levels, Lung", "setting": "Idua-W402X mice; [5]", "value": 19, "unit": "%"}, {"measurement": "Reduction in Excess GAG Levels, Spleen", "setting": "Idua-W402X mice; [5]", "value": 78, "unit": "%"}, {"measurement": "GAG levels achieved in the brain and spleen", "setting": "Idua-W402X mice; Idua-W402X mice, 0.1% in chow, 2 weeks", "value": "near normal GAG levels"}, {"measurement": "Reduction in Excess GAG Levels, Brain", "setting": "Idua-W402X mice; [6]", "value": 37, "unit": "%"}, {"measurement": "Reduction in Excess GAG Levels, Heart", "setting": "Idua-W402X mice; [6]", "value": 0, "unit": "%"}, {"measurement": "Reduction in Excess GAG Levels, Kidney", "setting": "Idua-W402X mice; [6]", "value": 0, "unit": "%"}, {"measurement": "Reduction in Excess GAG Levels, Liver", "setting": "Idua-W402X mice; [6]", "value": 53, "unit": "%"}, {"measurement": "Reduction in Excess GAG Levels, Lung", "setting": "Idua-W402X mice; [6]", "value": 11, "unit": "%"}, {"measurement": "Reduction in Excess GAG Levels, Spleen", "setting": "Idua-W402X mice; [6]", "value": 57, "unit": "%"}, {"measurement": "Reduction in Excess GAG Levels, Brain", "setting": "Idua-W402X mice; [7]", "value": 28, "unit": "%"}, {"measurement": "Reduction in Excess GAG Levels, Heart", "setting": "Idua-W402X mice; [7]", "value": 0, "unit": "%"}, {"measurement": "Reduction in Excess GAG Levels, Kidney", "setting": "Idua-W402X mice; [7]", "value": 0, "unit": "%"}, {"measurement": "Reduction in Excess GAG Levels, Liver", "setting": "Idua-W402X mice; [7]", "value": 17, "unit": "%"}, {"measurement": "Reduction in Excess GAG Levels, Lung", "setting": "Idua-W402X mice; [7]", "value": 14, "unit": "%"}, {"measurement": "Reduction in Excess GAG Levels, Spleen", "setting": "Idua-W402X mice; [7]", "value": 11, "unit": "%"}, {"measurement": "Dose-response relationship for GAG reduction", "setting": "[1]; Idua-W392X MEFs", "value": "U shaped dose-response relationship"}, {"measurement": "Nonsense suppression activity as determined by GAG levels", "setting": "[1]; Idua-W392X MEFs", "value": "concentration dependent nonsense suppression activity"}, {"measurement": "Concentration giving the greatest reduction of GAG levels", "setting": "[1]; Idua-W402X (W392X) MEFs, 1-40 μg/mL tested", "value": 10, "unit": "µg/mL"}, {"measurement": "Concentrations with decreased reduction of GAG levels", "setting": "[1]; Idua-W402X MEFs", "value": "above 20 μg/mL"}, {"measurement": "Reduction of food intake versus control chow", "setting": "[2]", "value": 45, "unit": "%"}, {"measurement": "Weight gain versus 0.1%, 0.3% doses or vehicle", "setting": "[2]; satellite PK study and Idua-W402X pharmacology studies", "value": "did not gain as much weight"}, {"measurement": "Changes in total protein concentration (cell viability)", "setting": "[3]; 0 to 40 μg/mL", "value": "No notable changes"}, {"measurement": "Signs of cellular toxicity or stress (cells rounding up or floating, changes in cell density)", "setting": "[3]; up to the highest concentration tested (40 μg/mL)", "value": "No signs of cellular toxicity or stress; also recorded: No signs of cell toxicity or stress"}]}
